According to US9523108B2, “Thermostable β-xylosidase” (HONDA MOTOR CO., LTD., priority 2014, dated 2016):

What was measured:
[1] = test system: thermostable β-xylosidase OJ1M-273-1 (GH3 family), SEQ ID NO: 2, from hot spring soil metagenome OJ1, expressed in E. coli, purified; test: Kinetics of PNP substrate hydrolysis by OJ1M-273-1 β-xylosidase; type: biochemical; conditions: 105° C., pH 5 acetate buffer; for Vmax (maximum initial rate of hydrolysis) / Km: 10 min, enzyme diluted to 0.01 mg/mL, Michaelis-Menten fit; for Km: read-out: Km (Michaelis constant); for Kcat/Km (catalytic efficiency): calculated from fitted Vmax and Km
Procedure: The gene recombinant E. coli homogeneous supernatant was loaded onto an ion exchange column HiTrap Q HP (manufactured by GE Healthcare, Inc.) equilibrated with a 50 mM Tris-HCl buffer (pH 8.0), and a medium-high pressure liquid chromatography system AKTA design (manufactured by GE Healthcare, Inc.) was used to fractionate proteins with a concentration gradient of 0 to 50% in a 50 mM Tris-HCl buffer (pH 8.0) containing 1 M of NaCl. […] The fractions with β-xylosidase activity following the buffer exchange were loaded onto a hydrophobic interaction separation column HiTrap Phenyl HP (manufactured by GE Healthcare, Inc.) equilibrated with the same buffer solution, and the proteins were fractionated with a concentration gradient of 0 to 100% in a 50 mM Tris-HCl buffer (pH 8.0). […] The concentrated sample was loaded onto a gel filtration column Hiload 26/60 superdex 200 pg (manufactured by GE Healthcare, Inc.) equilibrated with a 50 mM Tris-HCl buffer (pH 8.0) containing 150 mM of NaCl, and was fractionated by passing a volume of the same buffer equivalent to 1 to 1.5 times the column volume through the column at a flow rate of 2 to 3 mL/min.
PNPX was used as the substrate for measuring the β-xylosidase activity. A solution prepared by dissolving PNPX (manufactured by Sigma-Aldrich Co. LLC.) in water to obtain a prescribed final concentration was used as the substrate solution. The PNPX substrate solutions used in the experiments described below all used aqueous solutions of PNPX prepared by the above method. In the measurements, a solution prepared by diluting the purified enzyme obtained in section <6> above with a 0.05 M Tris-HCl buffer (pH 8.0) to obtain a concentration of 0.1 to 0.01 mg/mL was used.
The reaction solution was composed of 6 μL of the diluted purified enzyme, 294 μL of purified water, 150 μL of a 200 mM acetate buffer (pH 5), and 150 μL of a 20 mM PNPX aqueous solution.
The reaction was performed at 60° C. to 115° C. for 10 minutes using a ReactiTherm (manufactured by Thermo Fisher Scientific Inc.). A glass vial with a volume of 1.5 mL was used as the reaction vessel, and the inside of the vial was pre-coated with a 1.5% by mass aqueous solution of BSA in order to suppress enzyme protein adsorption. In all measurements, a mixed solution prepared by replacing the gene recombinant E. coli homogenous supernatant or the purified enzyme with a 50 mM Tris-HCl buffer (pH 8.0) and then reacting the solution under the same conditions was used as a control. Further, the mixed solution containing the enzyme (the gene recombinant E. coli homogenous supernatant or the purified enzyme), the purified water and the buffer was held at the reaction temperature for five minutes (pre-incubation), the substrate solution was then added, and the reaction was performed. In each case, following completion of the 10-minute reaction, the reaction was halted by adding a 0.2 M Na2CO3 solution to the reaction solution in a volume equal to that of the mixed solution, and the resulting mixture was then centrifuged for 5 minutes to obtain a supernatant. The amount of p-nitrophenol in the supernatant was determined by measuring the absorbance at 420 nm using a spectrophotometer, calculating the amount of p-nitrophenol in the supernatant using a calibration curve prepared with p-nitrophenol, and then determining the amount of p-nitrophenol produced by the enzymatic hydrolysis on the basis of the difference from the control. The enzymatic activity for producing 1 μmol of p-nitrophenol per minute was defined as 1 U, and the value obtained by dividing this activity by the amount of protein was defined as the specific activity (U/mg). Each measurement was performed for three independent experiments, and a mean value and a standard error were determined.
The maximum initial rate (Vmax) of hydrolysis, the Michaelis constant (Km) and the catalytic efficiency (Kcat/Km) were investigated for PNP substrate hydrolysis by OJ1M-273-1. […]

[2] = test system: thermostable 1-xylosidase having an optimum temperature of 95° C. (Non-Patent Document 7, Shi et al., 2013); conditions: PNPX as substrate; cited from earlier work

Compound	Vmax (maximum initial rate of hydrolysis) [1] [U/mg]	Km [1] [mM]	Kcat/Km (catalytic efficiency) [1] [M⁻¹ s⁻¹]	catalytic efficiency Kcat/Km [2] [M⁻¹ s⁻¹]
O=[N+]([O-])c1ccc(O[C@@H]2O[C@@H](CO)[C@H](O)[C@H]2O)cc1 [PNPAF, p-nitrophenyl-α-L-arabinofuranoside]	914.5	13.7	87700	
O=[N+]([O-])c1ccc(O[C@@H]2OC[C@H](O)[C@H](O)[C@H]2O)cc1 [PNPAP, p-nitrophenyl-α-L-arabinopyranoside]	838.5	20.6	53600	
O=[N+]([O-])c1ccc(O[C@@H]2OC[C@@H](O)[C@H](O)[C@H]2O)cc1 [PNPX, p-nitrophenyl-β-D-xylopyranoside]	86.0	0.44	259800	1.1734e+06
